One experiment deals with T1, photosystem II (PS II) (Spinacia oleracea, UniProt P69560).
T1 construct: the chloroplasts were osmotically ruptured and the thylakoid membranes were then obtained by centrifugation; from tissue; host or cells: spinach leaves (thylakoid membrane preparation)
As to the kind of experiment: Activity determination of photosystem II (PS II) in thylakoid membranes, DCPIP reduction. The format is biochemical. The note with it: spinach thylakoid membranes, DCPIP 120 μM, 10 min at 22° C. with illumination; read-out: pI50 (converted). On the procedure:
Measurement of PS II Activity in Thylakoid Membranes
1. Preparation of the Thylakoid Membranes
Cooled fresh spinach leaves were comminuted and homogenized in 50 mM phosphate buffer, pH 6.8, 10 mM KCl, 0.34 M sucrose (sucrose buffer) (mixer, 1 g of plant material/ml). The homogenate was subsequently filtered through 4 layers of Miracloth and the chloroplasts were obtained by centrifugation: • 10 minutes (min) of centrifugation at 4400×g (4° C.). • The sediment was suspended in 25 ml of sucrose buffer and centrifuged for another 10 min at 4400×g (4° C.). • The sediment was then suspended in 40 ml of 50 mM phosphate buffer, pH 6.8, 10 mM KCl, without sucrose. • In this step, the chloroplasts were osmotically ruptured and the thylakoid membranes were then obtained by centrifugation (10 min, 4400×g, 4° C.). The membrane sediment was finally suspended in about 20 ml of 50 mM phosphate buffer, pH 6.8, 10 mM KCl. • After protein determination and activity determination, the membrane suspension was aliquoted and frozen in liquid nitrogen. The aliquots were stored at −80° C. Under these conditions, the photosystem II preparation is storage-stable for at least three months.
2. Activity Determination of the Photosystem II (PS II)
The electron transfer from PS II to an artificial electronic captor, 2,6-dichlorophenol-indophenol (DCPIP), is measured under the action of light. The concentration of the blue oxidized form of DCPIP can be determined spectraphotometrically at the wavelength l=595 nm. The enzyme-catalyzed reduction of DCPIP results in a colourless leuco form and thus to a decrease of absorption at 595 nm in the reaction batch, which is measured as a function of time.
The activity determination was carried out in microtiter plates (96 wells) in a reaction volume of 200 μl. 155 μl of dilute membrane suspension in 50 mM phosphate buffer, pH 6.8, 10 mM KCl were initially charged. Depending on the activity of the PS II preparation, the dilution was adjusted such that measurement of the decrease in absorption (λ=595 nm) was linear for at least 10 min.
Typical dilution series of the test compounds comprised 10 concentration steps in the range between 10^−9and 10^−5 M.
On each microtiter plate, a known PS II inhibitor, e.g. metribuzin, was used as standard for assessing the quality of the PS II test.
The reaction was initiated by addition of 40 μl DCPIP solution (600 μM in distilled water); the final concentration of DCPIP was 120 μM.
Absorption was measured over a period of 10 min at 22° C. and with illumination. For calculating the active compound concentration at which 50% of the enzyme activity is inhibited (IC50), the relative enzymatic activity (in %) was plotted as a function of the logarithm of the active compound concentration.
Consider `CC1=C(C)C(O)N(C2=NN(c3ccccc3)C(C(F)(F)F)C2)C1=O` (stereo not drawn) [I.2-1413], for which the IC50 is 5.01 µM.

A further experiment deals with Veronica persica. As to the kind of experiment: Pre-emergence herbicidal action, VERPE. It is filed as in vivo. The note with it: application rate 1280 g/ha, scored visually after about 3 weeks. From the text:
Pre-Emergence Herbicidal Action Seeds of mono- and dicotyledonous weed plants or crop plants were placed in sandy loam in wood fibre pots and covered with soil. The formulated compounds of the general formula (I) according to the invention were then applied to the surface of the covering soil in the form of an aqueous suspension or emulsion at an application rate of 600 l of water/ha (converted) with addition of 0.2% wetting agent. After the treatment, the pots were placed in a greenhouse and kept under good growth conditions for the test plants. After about 3 weeks, the effect was scored visually in percent in comparison to untreated controls. For example, 100% activity=the plants have died, 50% herbicidal activity or damage=plants reduced to 50% or plant material reduced by 50%, 0% activity=like control plants. Here, in the biological tests, the compounds of the general formula (I) according to the invention were in each case employed in a formulation, with the numerations of Tables I.1 to I.77 also applying here. Here, the herbicidal action of the compounds of the general formula (I) according to the invention was examined for the following harmful plants: VERPE=Veronica persica The respective herbicidal action was in each case determined at the same point in time after application of the formulation in question, i.e. damage of the harmful plant in question in %. Pre-emergence herbicidal action of the compounds of the general formula (I) according to the invention: […]
Take `CC1=C(C)C(O)N(C2=NN(c3ccccn3)C(C)(C)C2)C1=O` (stereo not drawn) [I.2-132]: the “Pre-emergence herbicidal action VERPE, damage of the harmful plant” value (shortened to “Pre-emergence herbicidal action VERPE”) is given as 30%.
As for `CCC(=O)OC1C(C)=C(C)C(=O)N1C1=NN(c2ccccn2)C(C)(C)C1` (stereo not drawn) [I.23-132], the “Pre-emergence herbicidal action VERPE” value is listed as 60%.
In the case of `CCC(=O)OC1C(C)=C(C)C(=O)N1C1=NN(c2ccccc2)CC1` (stereo not drawn) [I.23-621], the “Pre-emergence herbicidal action VERPE” value was 0%.
On the same count and under the same terms, the figure for `CCC(=O)OC1C(C)=C(C)C(=O)N1C1=NN(c2ccccc2)C(C(F)(F)F)C1` (stereo not drawn) [I.23-1413] is 60%; for `CCC(=O)OC1C(C)=C(Cl)C(=O)N1C1=NN(C)C(c2ccccc2)C1` (stereo not drawn) [I.24-1126] it is 0%.

Source of the values: patent US20190166840A1, “SUBSTITUTED PYRAZOLINYL DERIVATIVES, PROCESSES FOR THEIR PREPARATION AND THEIR USE AS HERBICIDES AND/OR PLANT GROWTH REGULATORS” (BAYER CROPSCIENCE AKTIENGESELLSCHAFT, priority 2016, published 2019).
